The target of assay [1] is DNA polymerase beta (Rattus norvegicus, UniProt P06766). Kind of assay: Inhibition of lyase activity of rat DNA polymerase beta after 30 mins by deoxyribose phosphate excision assay.
Assay [2] relates to A549. Kind of assay: Cytotoxicity against human A549 cells assessed as cell viability at 200 uM after 48 hrs by MTT assay relative to control. To be noted: A549, 48 h, read-out: Activity. Format: functional.
The subject of assay [3] is A549. Kind of assay: Cytotoxicity against human A549 cells assessed as cell viability at 62.5 uM after 48 hrs by MTT assay relative to control. The format is functional. The conditions noted are these: A549, 48 h, read-out: Activity.
For assay [4], the system named is A549. Kind of assay: Potentiation of methyl methanesulfonate-induced cytotoxicity against human A549 cells assessed as cell viability after 48 hrs by MTT assay relative to control. The format is functional.

pIC50: −log10 of the molar value.

Take `C=C(COC(=O)c1ccc(O)cc1)[C@@H]1CC[C@]2(C)CC[C@]3(C)[C@H](C[C@@H](O)[C@@H]4[C@@]5(C)CCC(=O)C(C)(C)[C@@H]5CC[C@]43C)[C@@H]12`: the negative logarithm of the IC50 (pIC50) in assay [1] was 4.20. Further, the viability at 200 µM in assay [2] came out at 100%. Also, in assay [3], the viability at 62.5 µM was determined as 100%. Also, the Activity in assay [4] came out at 100%.
`Oc1cc(O)c2c(c1)O[C@H](c1ccc(O)c(O)c1)[C@H](O)C2` [(-)-EPICATECHIN] had a pIC50 in assay [1] of 4.73. Moreover, the viability at 200 µM in assay [2] came out at 100%. Moreover, the viability at 62.5 µM in assay [3] was 100%. The Activity in assay [4] is on record as 86.6%.
